Results: patent US9695155B2, “Herbicidal substituted pyrimidinyloxy benzene compounds” (E. I. DU PONT DE NEMOURS AND COMPANY, priority 2013, dated 2017)

How the values were obtained:
windgrass = test: Test D postemergence; type: in vivo, Apera spica-venti
From the text: (§1) Seeds of plant species selected from bluegrass (annual bluegrass, Poa annua), blackgrass (Alopecurus myosuroides), canarygrass (littleseed canarygrass, Phalaris minor), chickweed (common chickweed, Stellaria media), galium (catchweed bedstraw, Galium aparine), bromegrass, downy (downy bromegrass, Bromus tectorum), field poppy (Papaver rhoeas), field violet (Viola arvensis), green foxtail (Setaria viridis), deadnettle (henbit deadnettle, Lamium amplexicaule), Italian ryegrass (Lolium multiflorum), kochia (Kochia scoparia), lambsquarters (Chenopodium album), oilseed rape (Brassica napus), pigweed (Amaranthus retroflexus), chamomile (scentless chamomile, Matricaria inodora), Russian thistle (Salsola kali), speedwell (bird's-eye speedwell, Veronica persica), spring barley (Hordeum vulgare), spring wheat (Triticum aestivum), wild buckwheat (Polygonum convolvulus), wild mustard (Sinapis arvensis), wild oat (Avena fatua), wild radish (Raphanus raphanistrum), windgrass (Apera spica-venti), winter barley (Hordeum vulgare), and winter wheat (Triticum aestivum) were planted into a silt loam soil and treated preemergence with test chemicals formulated in a non-phytotoxic solvent mixture which included a surfactant.
(§2) At the same time, these species were planted in pots containing Redi-Earth® planting medium (Scotts Company, 14111 Scottslawn Road, Marysville, Ohio 43041) comprising spaghnum peat moss, vermiculite, wetting agent and starter nutrients and treated with postemergence applications of the test chemicals formulated in the same manner. Plants ranged in height from 2 to 18 cm (1- to 4-leaf stage). Treated plants and controls were maintained in a controlled growth environment for 7 to 21 days after which time all species were compared to controls and visually evaluated. Plant response ratings, summarized in Table D, are based on a scale of 0 to 100 where 0 is no effect and 100 is complete control. A dash (-) response means no test result.

wild buckwheat = test: Test D postemergence; type: in vivo, Polygonum convolvulus
From the text: as §1, §2

oilseed rape = test: Test D preemergence; type: in vivo, Brassica napus
From the text: as §1, §2

field poppy = test: Test D preemergence; type: in vivo, Papaver rhoeas
From the text: as §1, §2

Italian ryegrass = test: Test D postemergence; type: in vivo, Lolium multiflorum
From the text: as §1, §2

wild oat = test: Test D postemergence; type: in vivo, Avena fatua
From the text: as §1, §2

wild mustard = test: Test D postemergence; type: in vivo, Sinapis arvensis
From the text: as §1, §2

speedwell = test: Test D preemergence; type: in vivo, Veronica persica
From the text: as §1, §2

[1] = 31 g ai/ha, scale 0 to 100 (0 no effect, 100 complete control)
[2] = 62 g ai/ha, scale 0 to 100 (0 no effect, 100 complete control)
[3] = 125 g ai/ha, scale 0 to 100 (0 no effect, 100 complete control)
[4] = 16 g ai/ha, scale 0 (no effect) to 100 (complete control)

In the case of `Fc1cccc(Oc2ncc(Cl)cn2)c1-n1cc(C(F)F)nn1` [Compound 141, 5-chloro-2-[2-[4-(difluoromethyl)-1H-1,2,3-triazol-1-yl]-3-fluorophenoxy]pyrimidine], the pest or weed control at 16 g/ha (windgrass; Apera spica-venti, post-emergence, 16 g ai/ha, scale 0-100, read-out: Plant response rating, Windgrass) is reported as 5%, the pest or weed control at 31 g/ha (windgrass; Apera spica-venti, post-emergence, 31 g ai/ha, scale 0 to 100 (0 no effect, 100 complete control), read-out: Plant response rating, Windgrass) is reported as 10% and the pest or weed control at 62 g/ha (windgrass; Apera spica-venti, post-emergence, 62 g ai/ha, scale 0 to 100 (0 no effect, 100 complete control), read-out: Plant response rating, Windgrass) is reported as 50%. The pest or weed control at 125 g/ha (windgrass; Apera spica-venti, post-emergence, 125 g ai/ha, scale 0 to 100 (0 no effect, 100 complete control), read-out: Plant response rating, Windgrass) was 60%, the pest or weed control at 16 g/ha (wild buckwheat; Fallopia convolvulus, post-emergence, Postemergence, 16 g ai/ha, scale 0 to 100 (0 no effect, 100 complete control), read-out: Plant response rating, Buckwheat, Wild) was 100% and the pest or weed control at 31 g/ha (wild buckwheat; Fallopia convolvulus, post-emergence, Postemergence, 31 g ai/ha, scale 0 to 100 (0 no effect, 100 complete control), read-out: Plant response rating, Buckwheat, Wild) was 100%. It also gave a pest or weed control at 62 g/ha (wild buckwheat; Fallopia convolvulus, post-emergence, Postemergence, 62 g ai/ha, scale 0 to 100 (0 no effect, 100 complete control), read-out: Plant response rating, Buckwheat, Wild) of 100%, a pest or weed control at 125 g/ha (wild buckwheat; Fallopia convolvulus, post-emergence, Postemergence, 125 g ai/ha, scale 0 to 100 (0 no effect, 100 complete control), read-out: Plant response rating, Buckwheat, Wild) of 100% and a plant injury at 16 g/ha (oilseed rape; Brassica napus, pre-emergence, 16 g ai/ha, scale 0 (no effect) to 100 (complete control), read-out: Plant response rating, Oilseed Rape) of 100%. The plant injury at 31 g/ha (oilseed rape; Brassica napus, pre-emergence, 31 g ai/ha, scale 0-100, read-out: Plant response rating, Oilseed Rape) was 100%, the plant injury at 62 g/ha (oilseed rape; Brassica napus, pre-emergence, 62 g ai/ha, scale 0-100, read-out: Plant response rating, Oilseed Rape) was 100% and the plant injury at 125 g/ha (oilseed rape; Brassica napus, pre-emergence, 125 g ai/ha, scale 0-100, read-out: Plant response rating, Oilseed Rape) was 100%. For the same compound, the pest or weed control at 16 g/ha (field poppy; Papaver rhoeas, pre-emergence, 16 g ai/ha, scale 0 (no effect) to 100 (complete control), read-out: Plant response rating, Field Poppy) was 98%, the pest or weed control at 31 g/ha (field poppy; Papaver rhoeas, pre-emergence, 31 g ai/ha, scale 0-100, read-out: Plant response rating, Field Poppy) was 100% and the pest or weed control at 62 g/ha (field poppy; Papaver rhoeas, pre-emergence, 62 g ai/ha, scale 0-100, read-out: Plant response rating, Field Poppy) was 100%. It also gave a pest or weed control at 125 g/ha (field poppy; Papaver rhoeas, pre-emergence, 125 g ai/ha, scale 0-100, read-out: Plant response rating, Field Poppy) of 100%, a pest or weed control at 16 g/ha (Italian ryegrass; Lolium multiflorum, post-emergence, 16 g ai/ha, scale 0-100, read-out: Plant response rating, Ryegrass, Italian) of 5% and a pest or weed control at 31 g/ha (Italian ryegrass; Lolium multiflorum, post-emergence, 31 g ai/ha, scale 0 to 100 (0 no effect, 100 complete control), read-out: Plant response rating, Ryegrass, Italian) of 15%. For the same compound, the pest or weed control at 62 g/ha (Italian ryegrass; Lolium multiflorum, post-emergence, 62 g ai/ha, scale 0 to 100 (0 no effect, 100 complete control), read-out: Plant response rating, Ryegrass, Italian) was 20%, the pest or weed control at 125 g/ha (Italian ryegrass; Lolium multiflorum, post-emergence, 125 g ai/ha, scale 0 to 100 (0 no effect, 100 complete control), read-out: Plant response rating, Ryegrass, Italian) was 25% and the pest or weed control at 16 g/ha (wild oat; Avena fatua, post-emergence, 16 g ai/ha, scale 0-100, read-out: Plant response rating, Oat, Wild) was 5%. For the same compound, the pest or weed control at 31 g/ha (wild oat; Avena fatua, post-emergence, 31 g ai/ha, scale 0 to 100 (0 no effect, 100 complete control), read-out: Plant response rating, Oat, Wild) was 10%, the pest or weed control at 62 g/ha (wild oat; Avena fatua, post-emergence, 62 g ai/ha, scale 0 to 100 (0 no effect, 100 complete control), read-out: Plant response rating, Oat, Wild) was 15% and the pest or weed control at 125 g/ha (wild oat; Avena fatua, post-emergence, 125 g ai/ha, scale 0 to 100 (0 no effect, 100 complete control), read-out: Plant response rating, Oat, Wild) was 30%. It also gave a pest or weed control at 16 g/ha (wild mustard; Brassica, post-emergence, 16 g ai/ha, scale 0-100, read-out: Plant response rating, Mustard, Wild) of 80%, a pest or weed control at 31 g/ha (wild mustard; Brassica, post-emergence, 31 g ai/ha, scale 0 to 100 (0 no effect, 100 complete control), read-out: Plant response rating, Mustard, Wild) of 100% and a pest or weed control at 62 g/ha (wild mustard; Brassica, post-emergence, 62 g ai/ha, scale 0 to 100 (0 no effect, 100 complete control), read-out: Plant response rating, Mustard, Wild) of 100%. For the same compound, the pest or weed control at 125 g/ha (wild mustard; Brassica, post-emergence, 125 g ai/ha, scale 0 to 100 (0 no effect, 100 complete control), read-out: Plant response rating, Mustard, Wild) was 100%, the pest or weed control at 16 g/ha (speedwell; Veronica persica, pre-emergence, 16 g ai/ha, scale 0 (no effect) to 100 (complete control), read-out: Plant response rating, Speedwell) was 100% and the pest or weed control at 31 g/ha (speedwell; Veronica persica, pre-emergence, 31 g ai/ha, scale 0 (no effect) to 100 (complete control), read-out: Plant response rating, Speedwell) was 100%. The pest or weed control at 62 g/ha (speedwell; Veronica persica, pre-emergence, 62 g ai/ha, scale 0-100, read-out: Plant response rating, Speedwell) was 100% and the pest or weed control at 125 g/ha (speedwell; Veronica persica, pre-emergence, 125 g ai/ha, scale 0-100, read-out: Plant response rating, Speedwell) was 100%.
`FCc1cccc(Oc2ncc(Cl)cn2)c1-n1cc(I)cn1` [Compound 245] was tested, and the “Plant response rating, Windgrass” value (windgrass; 16 g ai/ha, scale 0-100) was 10, the “Plant response rating, Windgrass” value (windgrass; [1]) was 15 and the “Plant response rating, Windgrass” value (windgrass; [2]) was 15. For the same compound, the “Plant response rating, Windgrass” value (windgrass; [3]) was 25, the “Plant response rating, Buckwheat, Wild” value (wild buckwheat; Postemergence, 62 g ai/ha, scale 0 to 100 (0 no effect, 100 complete control)) was 75 and the “Plant response rating, Buckwheat, Wild” value (wild buckwheat; Postemergence, 31 g ai/ha, scale 0 to 100 (0 no effect, 100 complete control)) was 70. For the same compound, the “Plant response rating, Buckwheat, Wild” value (wild buckwheat; Postemergence, 125 g ai/ha, scale 0 to 100 (0 no effect, 100 complete control)) was 90, the “Plant response rating, Buckwheat, Wild” value (wild buckwheat; postemergence, 16 g ai/ha, scale 0 to 100, 0 no effect, 100 complete control) was 70 and the “Plant response rating, Oilseed Rape” value (oilseed rape; [4]) was 0. For the same compound, the “Plant response rating, Oilseed Rape” value (oilseed rape; 31 g ai/ha, scale 0-100) was 0, the “Plant response rating, Oilseed Rape” value (oilseed rape; 62 g ai/ha, scale 0-100) was 30 and the “Plant response rating, Oilseed Rape” value (oilseed rape; 125 g ai/ha, scale 0-100) was 100. The “Plant response rating, Field Poppy” value (field poppy; [4]) was 100, the “Plant response rating, Field Poppy” value (field poppy; 31 g ai/ha, scale 0-100) was 100 and the “Plant response rating, Field Poppy” value (field poppy; 62 g ai/ha, scale 0-100) was 100. The “Plant response rating, Field Poppy” value (field poppy; 125 g ai/ha, scale 0-100) was 100, the “Plant response rating, Ryegrass, Italian” value (Italian ryegrass; 16 g ai/ha, scale 0-100) was 0 and the “Plant response rating, Ryegrass, Italian” value (Italian ryegrass; [1]) was 10. For the same compound, the “Plant response rating, Ryegrass, Italian” value (Italian ryegrass; [2]) was 20, the “Plant response rating, Ryegrass, Italian” value (Italian ryegrass; [3]) was 20 and the “Plant response rating, Oat, Wild” value (wild oat; 16 g ai/ha, scale 0-100) was 0. The “Plant response rating, Oat, Wild” value (wild oat; [1]) was 0, the “Plant response rating, Oat, Wild” value (wild oat; [2]) was 10 and the “Plant response rating, Oat, Wild” value (wild oat; [3]) was 10. For the same compound, the “Plant response rating, Mustard, Wild” value (wild mustard; 16 g ai/ha, scale 0-100) was 80, the “Plant response rating, Mustard, Wild” value (wild mustard; [1]) was 70 and the “Plant response rating, Mustard, Wild” value (wild mustard; [2]) was 100. For the same compound, the “Plant response rating, Mustard, Wild” value (wild mustard; [3]) was 98, the “Plant response rating, Speedwell” value (speedwell; [4]) was 5 and the “Plant response rating, Speedwell” value (speedwell; 31 g ai/ha, scale 0 (no effect) to 100 (complete control)) was 100. For the same compound, the “Plant response rating, Speedwell” value (speedwell; 125 g ai/ha, scale 0-100) was 100.
